Results reported in ChEMBL document CHEMBL3044741, “Synthesis of novel biologically active methylene derivatives of sydnones” (Med Chem Res, 2013).
Converted amounts (≈) assume the structure as drawn.

How the values were obtained:
Assay type in all cases: functional
IGROV-1 = assay: Cytotoxicity against human IGROV1 assessed as cell growth at high concentration
HCC 2998 = assay: Cytotoxicity against human HCC2998 assessed as cell growth at high concentration
NCI-H226 = assay: Cytotoxicity against human NCI-H226 assessed as cell growth at high concentration
SF-268 = assay: Cytotoxicity against human SF268 assessed as cell growth at high concentration
CAKI-1 = assay: Cytotoxicity against human Caki1 assessed as cell growth at high concentration
Streptococcus pyogenes [1] = assay: Antibacterial activity against Streptococcus pyogenes MTCC 442 after 24 hrs by broth dilution method; details: MTCC 442, 24 h
UACC-257 = assay: Cytotoxicity against human UACC257 assessed as cell growth at high concentration
LOX IMVI = assay: Cytotoxicity against human LOXIMVI assessed as cell growth at high concentration
EKVX = assay: Cytotoxicity against human EKVX assessed as cell growth at high concentration
Candida albicans [2] = assay: Antifungal activity against Candida albicans MTCC 227
MCF7 = assay: Cytotoxicity against human MCF7 assessed as cell growth at high concentration
MDA-MB-231 = assay: Cytotoxicity against human MDA-MB-231 assessed as cell growth at high concentration
KM12 = assay: Cytotoxicity against human KM12 assessed as cell growth at high concentration
RPMI-8226 = assay: Cytotoxicity against human RPMI8226 assessed as cell growth at high concentration
Escherichia coli [3] = assay: Antibacterial activity against Escherichia coli MTCC 443 at 250 ug/ml after 24 hrs by Kirby-Bauer method; details: MTCC 443, 24 h, read-out: IZ
SK-MEL-2 = assay: Cytotoxicity against human SK-MEL-2 assessed as cell growth at high concentration
A498 = assay: Cytotoxicity against human A498 assessed as cell growth at high concentration
Streptococcus pyogenes [4] = assay: Antibacterial activity against Streptococcus pyogenes MTCC 442 at 250 ug/ml after 24 hrs by Kirby-Bauer method; details: MTCC 442, 24 h, read-out: IZ
MDA-MB-468 = assay: Cytotoxicity against human MDA-MB-468 assessed as cell growth at high concentration
NCI-H322M = assay: Cytotoxicity against human NCI-H322M assessed as cell growth at high concentration
NCI-H522 = assay: Cytotoxicity against human NCI-H522 assessed as cell growth at high concentration
Hs-578T = assay: Cytotoxicity against human Hs 578T assessed as cell growth at high concentration
U-251 = assay: Cytotoxicity against human U251 assessed as cell growth at high concentration
Aspergillus clavatus [5] = assay: Antifungal activity against Aspergillus clavatus MTCC 1323
SNB-19 = assay: Cytotoxicity against human SNB19 assessed as cell growth at high concentration
T47D = assay: Cytotoxicity against human T47D assessed as cell growth at high concentration
CCRF-CEM = assay: Cytotoxicity against human CCRF-CEM assessed as cell growth at high concentration
HOP-62 = assay: Cytotoxicity against human HOP62 assessed as cell growth at high concentration
SK-OV-3 = assay: Cytotoxicity against human SKOV3 assessed as cell growth at high concentration
Aspergillus clavatus [6] = assay: Antifungal activity against Aspergillus clavatus MTCC 1323 at 250 ug/ml after 74 hrs by Kirby-Bauer method; details: MTCC 1323, 74 h, read-out: IZ
PC-3 = assay: Cytotoxicity against human PC3 assessed as cell growth at high concentration
HCT-116 = assay: Cytotoxicity against human HCT116 assessed as cell growth at high concentration
NCI-H23 = assay: Cytotoxicity against human NCI-H23 assessed as cell growth at high concentration
MOLT-4 = assay: Cytotoxicity against human MOLT4 assessed as cell growth at high concentration
HCT-15 = assay: Cytotoxicity against human HCT15 assessed as cell growth at high concentration
BT-549 = assay: Cytotoxicity against human BT549 assessed as cell growth at high concentration
RXF 393 = assay: Cytotoxicity against human RXF393 assessed as cell growth at high concentration
A549 = assay: Cytotoxicity against human A549 assessed as cell growth at high concentration
[7] = Cytotoxicity against human NCI-ADR-RES assessed as cell growth at high concentration
Pseudomonas aeruginosa [8] = assay: Antibacterial activity against Pseudomonas aeruginosa MTCC 424 after 24 hrs by broth dilution method; details: MTCC 424, 24 h
Staphylococcus aureus [9] = assay: Antibacterial activity against Staphylococcus aureus MTCC 96 at 250 ug/ml after 24 hrs by Kirby-Bauer method; details: MTCC 96, 24 h, read-out: IZ
SK-MEL-28 = assay: Cytotoxicity against human SK-MEL-28 assessed as cell growth at high concentration
Escherichia coli [10] = assay: Antibacterial activity against Escherichia coli MTCC 443 after 24 hrs by broth dilution method; details: MTCC 443, 24 h
SW-620 = assay: Cytotoxicity against human SW620 assessed as cell growth at high concentration
OVCAR-4 = assay: Cytotoxicity against human OVCAR4 assessed as cell growth at high concentration
Aspergillus niger [11] = assay: Antifungal activity against Aspergillus niger MTCC 282
786-0 = assay: Cytotoxicity against human 786-0 assessed as cell growth at high concentration
MDA-MB-435 = assay: Cytotoxicity against human MDA-MB-435 assessed as cell growth at high concentration
HT-29 = assay: Cytotoxicity against human HT-29 assessed as cell growth at high concentration
NCI-H460 = assay: Cytotoxicity against human NCI-H460 assessed as cell growth at high concentration
Staphylococcus aureus [12] = assay: Antibacterial activity against Staphylococcus aureus MTCC 96 after 24 hrs by broth dilution method; details: MTCC 96, 24 h
M14 = assay: Cytotoxicity against human M14 assessed as cell growth at high concentration
Pseudomonas aeruginosa [13] = assay: Antibacterial activity against Pseudomonas aeruginosa MTCC 424 at 250 ug/ml after 24 hrs by Kirby-Bauer method; details: MTCC 424, 24 h, read-out: IZ
SNB-75 = assay: Cytotoxicity against human SNB75 assessed as cell growth at high concentration
Malme-3M = assay: Cytotoxicity against human MALME-3M assessed as cell growth at high concentration
K562 = assay: Cytotoxicity against human K562 assessed as cell growth at high concentration
SR = assay: Cytotoxicity against human SR assessed as cell growth at high concentration
OVCAR-3 = assay: Cytotoxicity against human OVCAR3 assessed as cell growth at high concentration
UACC-62 = assay: Cytotoxicity against human UACC62 assessed as cell growth at high concentration
SN12C = assay: Cytotoxicity against human SN12C assessed as cell growth at high concentration
DU-145 = assay: Cytotoxicity against human DU145 assessed as cell growth at high concentration
TK-10 = assay: Cytotoxicity against human TK10 assessed as cell growth at high concentration
UO-31 = assay: Cytotoxicity against human UO31 assessed as cell growth at high concentration
SF-539 = assay: Cytotoxicity against human SF539 assessed as cell growth at high concentration
Aspergillus niger [14] = assay: Antifungal activity against Aspergillus niger MTCC 282 at 250 ug/ml after 74 hrs by Kirby-Bauer method; details: MTCC 282, 74 h, read-out: IZ
COLO 205 = assay: Cytotoxicity against human COLO205 assessed as cell growth at high concentration
HL-60(TB) = assay: Cytotoxicity against human HL-60(TB) assessed as cell growth at high concentration
SK-MEL-5 = assay: Cytotoxicity against human SK-MEL-5 assessed as cell growth at high concentration
SF-295 = assay: Cytotoxicity against human SF295 assessed as cell growth at high concentration
OVCAR-8 = assay: Cytotoxicity against human OVCAR8 assessed as cell growth at high concentration
Candida albicans [15] = assay: Antifungal activity against Candida albicans MTCC 227 at 250 ug/ml after 74 hrs by Kirby-Bauer method; details: MTCC 227, 74 h, read-out: IZ

**Q.** For `[O-]c1on[n+](-c2ccc(Cc3ccc(-[n+]4noc([O-])c4CN4CCOCC4)cc3)cc2)c1CN1CCOCC1`, which Activity (IGROV-1) is on record?
**A.** 62.3%

**Q.** What about the Activity (HCC 2998) of the same molecule?
**A.** 80.48%

**Q.** What about the Activity (NCI-H226) of the same molecule?
**A.** 85.46%

**Q.** What about the Activity (SF-268) of the same molecule?
**A.** 78.33%

**Q.** What about the Activity (CAKI-1) of the same molecule?
**A.** 49.27%

**Q.** And the MIC (Streptococcus pyogenes [1])?
**A.** 250 µg/mL (≈ 468 µM)

**Q.** What about the Activity (UACC-257) of the same molecule?
**A.** 75.14%

**Q.** And the Activity (LOX IMVI)?
**A.** 65.03%

**Q.** And the Activity (EKVX)?
**A.** 69.86%

**Q.** What about the MIC (Candida albicans [2]) of the same molecule?
**A.** 500 µg/mL (≈ 935 µM)

**Q.** And the Activity (MCF7)?
**A.** 45.59%

**Q.** And the Activity (MDA-MB-231)?
**A.** 60.45%

**Q.** What about the Activity (KM12) of the same molecule?
**A.** 54.32%

**Q.** And the Activity (RPMI-8226)?
**A.** 60.49%

**Q.** And the zone of inhibition at 250 µg/mL (Escherichia coli [3])?
**A.** 18 mm

**Q.** And the Activity (SK-MEL-2)?
**A.** 78.61%

**Q.** What about the Activity (A498) of the same molecule?
**A.** 53.74%

**Q.** And the zone of inhibition at 250 µg/mL (Streptococcus pyogenes [4])?
**A.** 19 mm

**Q.** And the Activity (MDA-MB-468)?
**A.** 11.42%

**Q.** What about the Activity (NCI-H322M) of the same molecule?
**A.** 82.54%

**Q.** What about the Activity (NCI-H522) of the same molecule?
**A.** 36.96%

**Q.** And the Activity (Hs-578T)?
**A.** 64.02%

**Q.** And the Activity (U-251)?
**A.** 62.81%

**Q.** What about the MIC (Aspergillus clavatus [5]) of the same molecule?
**A.** 500 µg/mL (≈ 935 µM)

**Q.** What about the Activity (SNB-19) of the same molecule?
**A.** 86.48%

**Q.** And the Activity (T47D)?
**A.** 56.09%

**Q.** What about the Activity (CCRF-CEM) of the same molecule?
**A.** 63.93%

**Q.** What about the Activity (HOP-62) of the same molecule?
**A.** 77%

**Q.** And the Activity (SK-OV-3)?
**A.** 87.98%

**Q.** And the zone of inhibition at 250 µg/mL (Aspergillus clavatus [6])?
**A.** 24 mm

**Q.** And the Activity (PC-3)?
**A.** 56.45%

**Q.** And the Activity (HCT-116)?
**A.** 63.75%

**Q.** And the Activity (NCI-H23)?
**A.** 62.15%

**Q.** And the Activity (MOLT-4)?
**A.** 68.41%

**Q.** What about the Activity (HCT-15) of the same molecule?
**A.** 78.57%

**Q.** And the Activity (BT-549)?
**A.** 60.72%

**Q.** What about the Activity (RXF 393) of the same molecule?
**A.** 72.21%

**Q.** And the Activity (A549)?
**A.** 69.06%

**Q.** What about the Activity [7] of the same molecule?
**A.** 63.42%

**Q.** And the MIC (Pseudomonas aeruginosa [8])?
**A.** 125 µg/mL (≈ 234 µM)

**Q.** And the zone of inhibition at 250 µg/mL (Staphylococcus aureus [9])?
**A.** 21 mm

**Q.** What about the Activity (SK-MEL-28) of the same molecule?
**A.** 74.89%

**Q.** And the MIC (Escherichia coli [10])?
**A.** 250 µg/mL (≈ 468 µM)

**Q.** What about the Activity (SW-620) of the same molecule?
**A.** 67.72%

**Q.** What about the Activity (OVCAR-4) of the same molecule?
**A.** 53.91%

**Q.** And the MIC (Aspergillus niger [11])?
**A.** 250 µg/mL (≈ 468 µM)

**Q.** And the Activity (786-0)?
**A.** 73.96%

**Q.** And the Activity (MDA-MB-435)?
**A.** 4.71%

**Q.** And the Activity (HT-29)?
**A.** 89.7%

**Q.** And the Activity (NCI-H460)?
**A.** 82.89%

**Q.** What about the MIC (Staphylococcus aureus [12]) of the same molecule?
**A.** 100 µg/mL (≈ 187 µM)

**Q.** What about the Activity (M14) of the same molecule?
**A.** 69.54%

**Q.** And the zone of inhibition at 250 µg/mL (Pseudomonas aeruginosa [13])?
**A.** 21 mm

**Q.** What about the Activity (SNB-75) of the same molecule?
**A.** 72.63%

**Q.** And the Activity (Malme-3M)?
**A.** 65.64%

**Q.** What about the Activity (K562) of the same molecule?
**A.** 26.39%

**Q.** What about the Activity (SR) of the same molecule?
**A.** 23.05%

**Q.** What about the Activity (OVCAR-3) of the same molecule?
**A.** 89.12%

**Q.** What about the Activity (UACC-62) of the same molecule?
**A.** 53.38%

**Q.** What about the Activity (SN12C) of the same molecule?
**A.** 80.32%

**Q.** And the Activity (DU-145)?
**A.** 100.94%

**Q.** And the Activity (TK-10)?
**A.** 74.48%

**Q.** What about the Activity (UO-31) of the same molecule?
**A.** 44.31%

**Q.** What about the Activity (SF-539) of the same molecule?
**A.** 77.5%

**Q.** What about the zone of inhibition at 250 µg/mL (Aspergillus niger [14]) of the same molecule?
**A.** 23 mm

**Q.** And the Activity (COLO 205)?
**A.** 99.94%

**Q.** And the Activity (HL-60(TB))?
**A.** 86.39%

**Q.** And the Activity (SK-MEL-5)?
**A.** 53.16%

**Q.** What about the Activity (SF-295) of the same molecule?
**A.** 44.14%

**Q.** And the Activity (OVCAR-8)?
**A.** 80.93%

**Q.** And the zone of inhibition at 250 µg/mL (Candida albicans [15])?
**A.** 23 mm
